Source: PubChem BioAssay AID256 (DTP/NCI, 2004)
Values joined by “and” are separate entries in the source; they are usually repeats but may differ in a detail not shown here. Equal entries are not always repeated. Inconclusive results and toxic doses are left out. How the source made its calls: active means survival T/C of 150% or more; inactive means T/C below 125% in these data.

Test system: CD2F1 mice, L1210 leukemia ip, survival T/C
Experiment: NCI In Vivo Anticancer Drug Screen. Data for tumor model L1210 Leukemia (intraperitoneal) in CD2F1 (CDF1) mice
Settings: endpoint: mean survival time, higher = longer survival
Procedure, shortened: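 Ratio T/C, where T is the treated-group value and C the vehicle-dosed control value, from mice implanted with a transplantable tumor.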

[1] = dose: 100.0 mg/kg/injection, schedule: Q01DX009 (ip), vehicle: saline with Tween-80
[2] = dose: 200.0 mg/kg/injection, schedule: Q01DX009 (ip), vehicle: saline with Tween-80

Measured: T/C

CC(CO)CCC(=O)C(C)C1C(=O)CC2[C@H]3CC=C4C[C@H](O)CC[C@@]4(C)C3CC[C@@]12C (stereo partly drawn)
inactive: dose: 50.0 mg/kg/injection, schedule: Q01DX001 (ip), vehicle: saline with Tween-80 94 % of control | dose: 100.0 mg/kg/injection, schedule: Q01DX001 (ip), vehicle: saline with Tween-80 97 % of control | dose: 200.0 mg/kg/injection, schedule: Q01DX001 (ip), vehicle: saline with Tween-80 95 % of control

O=C(SSC(=O)c1ccccc1)c1ccccc1
inactive: [1] 95 % of control | dose: 100.0 mg/kg/injection, schedule: Q04DX003 (ip), vehicle: saline with Tween-80 98 % of control | [2] 103 % of control | dose: 200.0 mg/kg/injection, schedule: Q04DX003 (ip), vehicle: saline with Tween-80 102 % of control | dose: 400.0 mg/kg/injection, schedule: Q01DX009 (ip), vehicle: saline with Tween-80 91 % of control | dose: 400.0 mg/kg/injection, schedule: Q04DX003 (ip), vehicle: saline with Tween-80 96 % of control

C[N+](C)=CN1c2ccccc2Sc2ccccc21
inactive: [1] 97 % of control | [2] 103 % of control

O=CO.[Co]
inactive: dose: 5.0 mg/kg/injection, schedule: Q01DX001 (ip), vehicle: saline 106 % of control | dose: 10.0 mg/kg/injection, schedule: Q01DX001 (ip), vehicle: saline 103 % of control | dose: 20.0 mg/kg/injection, schedule: Q01DX001 (ip), vehicle: saline 106 % of control | dose: 40.0 mg/kg/injection, schedule: Q01DX001 (ip), vehicle: saline 100 % of control

CCCCCCC[CH2][Sn]([CH2]CCCCCCC)([NH]S(=O)(=O)c1ccc(C)cc1)[NH]S(=O)(=O)c1ccc(C)cc1
inactive: dose: 75.0 mg/kg/injection, schedule: Q01DX001 (ip), vehicle: other 113 % of control | dose: 150.0 mg/kg/injection, schedule: Q01DX001 (ip), vehicle: other 107 % of control

Nc1nc(N)c2c(=O)c(CSc3ccc(C(=O)NC(CCC(=O)O)C(=O)O)cc3)c[nH]c2n1 (stereo not drawn)
inactive: dose: 0.5 mg/kg/injection, schedule: Q01DX005 (ip), vehicle: sodium bicarbonate 92 % of control and 104 % of control | dose: 1.0 mg/kg/injection, schedule: Q01DX005 (ip), vehicle: sodium bicarbonate 92 % of control and 106 % of control | dose: 2.0 mg/kg/injection, schedule: Q01DX005 (ip), vehicle: sodium bicarbonate 89 % of control and 108 % of control | dose: 4.0 mg/kg/injection, schedule: Q01DX005 (ip), vehicle: sodium bicarbonate 95 % of control and 104 % of control | dose: 8.0 mg/kg/injection, schedule: Q01DX005 (ip), vehicle: sodium bicarbonate 95 % of control and 108 % of control | dose: 16.0 mg/kg/injection, schedule: Q01DX005 (ip), vehicle: sodium bicarbonate 95 % of control and 106 % of control
